Measurements: patent publication US20250171431A1, “HETEROCYCLIC INHIBITORS OF IGF-1R FOR TREATMENT OF DISEASE” (HORIZON THERAPEUTICS IRELAND DAC, priority 2023, published 2025)

What follows are compounds tested against IGF-1R (Homo sapiens (Human), UniProt P08069) (assay: Example B-1: IGF-1R Assay (PC3 cells, IGF1 stimulation, AlphaLISA)). Conditions: 200 ng/mL IGF1 stimulation, read-out: Biological Activity against IGF-1R IC50.
Sequence of IGF-1R (P08069 31-1367): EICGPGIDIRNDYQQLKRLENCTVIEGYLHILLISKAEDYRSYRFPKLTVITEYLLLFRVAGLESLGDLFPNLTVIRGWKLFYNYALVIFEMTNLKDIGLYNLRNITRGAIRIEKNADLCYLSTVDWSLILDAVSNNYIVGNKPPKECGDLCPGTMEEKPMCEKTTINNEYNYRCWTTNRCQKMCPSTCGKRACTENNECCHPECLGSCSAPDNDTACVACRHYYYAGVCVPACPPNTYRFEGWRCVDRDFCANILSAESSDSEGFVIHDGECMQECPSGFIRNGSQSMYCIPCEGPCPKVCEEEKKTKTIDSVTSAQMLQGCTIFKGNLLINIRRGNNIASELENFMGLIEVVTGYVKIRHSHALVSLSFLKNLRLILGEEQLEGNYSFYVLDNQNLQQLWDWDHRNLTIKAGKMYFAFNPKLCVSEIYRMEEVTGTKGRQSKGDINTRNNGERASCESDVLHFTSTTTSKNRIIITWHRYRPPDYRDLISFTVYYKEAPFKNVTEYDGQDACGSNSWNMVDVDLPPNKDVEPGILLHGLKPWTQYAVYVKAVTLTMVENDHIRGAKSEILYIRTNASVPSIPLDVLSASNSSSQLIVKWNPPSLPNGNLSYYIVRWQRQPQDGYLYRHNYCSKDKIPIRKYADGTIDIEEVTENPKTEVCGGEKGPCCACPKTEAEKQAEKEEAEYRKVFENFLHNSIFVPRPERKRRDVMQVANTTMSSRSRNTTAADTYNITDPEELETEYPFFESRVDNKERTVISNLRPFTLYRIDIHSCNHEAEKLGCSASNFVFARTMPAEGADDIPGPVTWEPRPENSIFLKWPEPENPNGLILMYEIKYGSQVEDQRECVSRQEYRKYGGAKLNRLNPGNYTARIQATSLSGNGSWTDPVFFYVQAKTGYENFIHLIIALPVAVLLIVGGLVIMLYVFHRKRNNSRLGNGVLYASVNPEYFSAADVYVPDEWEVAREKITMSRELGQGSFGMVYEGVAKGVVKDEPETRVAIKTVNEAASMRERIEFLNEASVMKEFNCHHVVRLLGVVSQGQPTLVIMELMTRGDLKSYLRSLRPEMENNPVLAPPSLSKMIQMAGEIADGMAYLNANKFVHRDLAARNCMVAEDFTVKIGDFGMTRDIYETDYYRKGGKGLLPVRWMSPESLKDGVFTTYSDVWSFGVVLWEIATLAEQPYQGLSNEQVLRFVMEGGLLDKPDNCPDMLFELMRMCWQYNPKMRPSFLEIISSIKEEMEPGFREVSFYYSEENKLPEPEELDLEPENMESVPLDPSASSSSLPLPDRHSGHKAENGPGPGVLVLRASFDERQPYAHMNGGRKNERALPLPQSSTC
Type: cell-based
Outline: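 PC3 cells were serum-starved 2 h, treated with serially diluted compounds for 2 h, then stimulated with IGF1 (200 ng/mL final) for 30 min. Lysates were read by AlphaLISA; % inhibition was calculated relative to vehicle and EC80 controls, with IC50 values binned into ranges.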
COc1cc(Nc2nccc(Nc3cnc4c(c3)OCCO4)n2)ccc1OCCCN1CCCCC1 [Compound 201, 4-(2,3-dihydro-1,4-dioxa-5-aza-7-naphthylamino)-2-[3-methoxy-4-(3-piperidinopropoxy)phenylamino]pyrimidine] gave an IC50 of at most 500 nM. For COc1cc(Nc2nccc(Nc3cnc4c(c3)CCCCC4)n2)ccc1O[C@H]1C[C@@H](N(C)C)C1 [Compound 202, 4-{8-azabicyclo[5.4.0]undeca-1(7),8,10-trien-10-ylamino}-2-{3-methoxy-4-[(1s,3s)-3-(dimethylamino)cyclobutoxy]phenylamino}pyrimidine], the IC50 was at most 500 nM. COc1cc(Nc2nccc(Nc3cnc4[nH]cc(Br)c4c3)n2)ccc1O[C@H]1C[C@@H](N(C)C)C1 [Compound 203, 4-(3-bromo-1H-1,7-diazainden-5-ylamino)-2-{3-methoxy-4-[(1s,3s)-3-(dimethylamino)cyclobutoxy]phenylamino}pyrimidine] gave an IC50 of at most 500 nM. In the case of CN(C)CC1COc2cc(Nc3nccc(Nc4cc5cccc(F)c5[nH]c4=O)n3)ccc2O1 (stereo not shown) [Compound 205, 3-(2-{2-[(dimethylamino)methyl]-2,3-dihydro-1,4-benzodioxin-6-ylamino}-4-pyrimidinylamino)-8-fluoro-1,2-dihydro-2-quinolinone], the IC50 is reported as at most 500 nM. O=S1(=O)CCN(CCCOc2ccc(Nc3nccc(Nc4cnc5ccc(Br)cc5c4)n3)cc2)CC1 [Compound 206, 4-(3-{p-[4-(6-bromo-3-quinolylamino)-2-pyrimidinylamino]phenoxy}propyl)-1λ^6,4-thiazinane-1,1-dione] gave an IC50 of at most 500 nM. For CN(C)CCOc1cc(Nc2nccc(Nc3cnc4ccccc4c3)n2)ccc1N1CCOCC1 [Compound 207, 2-{3-[2-(dimethylamino)ethoxy]-4-morpholinophenylamino}-4-(3-quinolylamino)pyrimidine], the IC50 was at most 500 nM. For COc1cc(Nc2nccc(Nc3cnc4c(c3)C3CCC4CC3)n2)ccc1OCCCN1CCCCC1 [Compound 209], the IC50 was at most 500 nM. COc1cc(Nc2ncc(F)c(Nc3cnc4ccc(Cl)cc4c3)n2)ccc1O[C@H]1C[C@@H](N(C)C)C1 [Compound 210, N4-(6-chloroquinolin-3-yl)-N2-(4-((1s,3s)-3-(dimethylamino)cyclobutoxy)-3-methoxyphenyl)-5-fluoropyrimidine-2,4-diamine] was tested, and the IC50 was at most 500 nM. For COc1cc(N2CCN(C3COC3)CC2)ncc1Nc1nccc(Nc2cc3cccc(F)c3[nH]c2=O)n1 [Compound 225, 8-fluoro-3-(2-{4-methoxy-6-[4-(3-oxetanyl)-1-piperazinyl]-3-pyridylamino}-4-pyrimidinylamino)-1,2-dihydro-2-quinolinone], the IC50 was at most 500 nM. COc1cc(N2CCN(CC#N)CC2)ncc1Nc1nccc(Nc2cc3cccc(F)c3[nH]c2=O)n1 [Compound 226, (4-{5-[4-(8-fluoro-2-oxo-1,2-dihydro-3-quinolylamino)-2-pyrimidinylamino]-4-methoxy-2-pyridyl}-1-piperazinyl)acetonitrile] was tested, and the IC50 was at most 500 nM. COc1nc(N2CCC(O)(C(F)(F)F)CC2)ccc1Nc1nccc(Nc2cc3cccc(F)c3[nH]c2=O)n1 [Compound 227, 8-fluoro-3-(2-{6-[4-hydroxy-4-(trifluoromethyl)-1-piperidyl]-2-methoxy-3-pyridylamino}-4-pyrimidinylamino)-1,2-dihydro-2-quinolinone] was tested, and the IC50 was at most 500 nM. In the case of COc1cc(Nc2nccc(Nc3cc4cccc(F)c4[nH]c3=O)n2)cnc1N1CCC(O)(C(F)(F)F)CC1 [Compound 228, 8-fluoro-3-(2-{6-[4-hydroxy-4-(trifluoromethyl)-1-piperidyl]-5-methoxy-3-pyridylamino}-4-pyrimidinylamino)-1,2-dihydro-2-quinolinone], the IC50 is reported as at most 500 nM. COc1cc(Nc2nccc(Nc3cc4cccc(F)c4[nH]c3=O)n2)cnc1N1CCN(C)C(C)(C)C1 [Compound 229, 3-{2-[6-(3,3-dimethyl-4-methyl-1-piperazinyl)-5-methoxy-3-pyridylamino]-4-pyrimidinylamino}-8-fluoro-1,2-dihydro-2-quinolinone] showed an IC50 of at most 500 nM. COc1cc(N2CCC(C)(O)CC2)ncc1Nc1nccc(Nc2cc3cccc(F)c3[nH]c2=O)n1 [Compound 230, 8-fluoro-3-{2-[6-(4-hydroxy-4-methyl-1-piperidyl)-4-methoxy-3-pyridylamino]-4-pyrimidinylamino}-1,2-dihydro-2-quinolinone] showed an IC50 of at most 500 nM. With COc1nc(N2CCC(C)(O)CC2)ccc1Nc1nccc(Nc2cc3cccc(F)c3[nH]c2=O)n1 [Compound 231, 8-fluoro-3-{2-[6-(4-hydroxy-4-methyl-1-piperidyl)-2-methoxy-3-pyridylamino]-4-pyrimidinylamino}-1,2-dihydro-2-quinolinone] the IC50 was at most 500 nM. In the case of COc1cc(Nc2nccc(Nc3cc4cccc(F)c4[nH]c3=O)n2)cnc1N1CCN(CC(F)(F)F)CC1 [Compound 232, 8-fluoro-3-(2-{5-methoxy-6-[4-(2,2,2-trifluoroethyl)-1-piperazinyl]-3-pyridylamino}-4-pyrimidinylamino)-1,2-dihydro-2-quinolinone], the IC50 is reported as at most 500 nM. With COc1cc(Nc2nccc(Nc3cc4cccc(F)c4[nH]c3=O)n2)cnc1N1CCNC(C(F)F)C1 (stereo not shown) [Compound 233, 3-(2-{6-[3-(difluoromethyl)-1-piperazinyl]-5-methoxy-3-pyridylamino}-4-pyrimidinylamino)-8-fluoro-1,2-dihydro-2-quinolinone] the IC50 was at most 500 nM. In the case of COc1cc(Nc2nccc(Nc3cc4cccc(F)c4[nH]c3=O)n2)cnc1N1CC2(COC2)C1 [Compound 234, 8-fluoro-3-(2-{5-methoxy-6-(2-oxa-6-aza-6-spiro[3.3]heptyl)-3-pyridylamino}-4-pyrimidinylamino)-1,2-dihydro-2-quinolinone], the IC50 is reported as at most 500 nM. COc1cc(Nc2nccc(Nc3cc4cccc(F)c4[nH]c3=O)n2)cnc1N1CCNCC1 [Compound 235, 8-fluoro-3-{2-[5-methoxy-6-(1-piperazinyl)-3-pyridylamino]-4-pyrimidinylamino}-1,2-dihydro-2-quinolinone] gave an IC50 of at most 500 nM. Work on COc1cc(Nc2nccc(Nc3cc4cccc(F)c4[nH]c3=O)n2)cnc1N1CCN(CC#N)CC1 [Compound 236, (4-{5-[4-(8-fluoro-2-oxo-1,2-dihydro-3-quinolylamino)-2-pyrimidinylamino]-3-methoxy-2-pyridyl}-1-piperazinyl)acetonitrile] yielded an IC50 of at most 500 nM. COc1cc(Nc2nccc(Nc3cc4cccc(F)c4[nH]c3=O)n2)cnc1N1CCN(C2COC2)CC1 [Compound 237, 8-fluoro-3-(2-{5-methoxy-6-[4-(3-oxetanyl)-1-piperazinyl]-3-pyridylamino}-4-pyrimidinylamino)-1,2-dihydro-2-quinolinone] was tested, and the IC50 was at most 500 nM. In the case of COc1cc(Nc2nccc(Nc3cc4cccc(F)c4[nH]c3=O)n2)cnc1N1CCNC(C(C)(C)O)C1 (stereo not shown) [Compound 238, 8-fluoro-3-(2-{6-[3-(1-hydroxy-1-methylethyl)-1-piperazinyl]-5-methoxy-3-pyridylamino}-4-pyrimidinylamino)-1,2-dihydro-2-quinolinone], the IC50 is reported as at most 500 nM. COc1cc(Nc2nccc(Nc3cc4cccc(F)c4[nH]c3=O)n2)cnc1N1CCNC(C(F)(F)F)C1 (stereo not shown) [Compound 239, 8-fluoro-3-(2-{5-methoxy-6-[3-(trifluoromethyl)-1-piperazinyl]-3-pyridylamino}-4-pyrimidinylamino)-1,2-dihydro-2-quinolinone] was tested, and the IC50 was at most 500 nM. COc1cc(Nc2nccc(Nc3cc4cccc(F)c4[nH]c3=O)n2)cnc1N1CCS(=N)(=O)CC1 [Compound 240, 4-{5-[4-(8-fluoro-2-oxo-1,2-dihydro-3-quinolylamino)-2-pyrimidinylamino]-3-methoxy-2-pyridyl}-1-imino-1λ^6,4-thiazinan-1-one] gave an IC50 of over 10000 nM. Work on COc1cc(Nc2nccc(Nc3cc4cccc(F)c4[nH]c3=O)n2)cnc1N1CCOCC1 [Compound 241, 8-fluoro-3-[2-(5-methoxy-6-morpholino-3-pyridylamino)-4-pyrimidinylamino]-1,2-dihydro-2-quinolinone] yielded an IC50 of at most 500 nM. For COc1cc(Nc2ncc(F)c(Nc3cc4cccc(F)c4[nH]c3=O)n2)ccc1O[C@H]1C[C@@H](N(C)C)C1 [Compound 242, 8-fluoro-3-(5-fluoro-2-{3-methoxy-4-[(1s,3s)-3-(dimethylamino)cyclobutoxy]phenyl-amino}-4-pyrimidinylamino)-1,2-dihydro-2-quinolinone], the IC50 was 2000 to 10000 nM. CN(C)CC1Cc2ccc(Nc3nccc(Nc4cc5cccc(F)c5[nH]c4=O)n3)cc2O1 (stereo not shown) [Compound 243, 3-(2-{2-[(dimethylamino)methyl]-2,3-dihydro-1-benzofuran-6-ylamino}-4-pyrimidinylamino)-8-fluoro-1,2-dihydro-2-quinolinone] was tested, and the IC50 was at most 500 nM. COc1cc(Nc2nccc(Nc3cc4ccc(F)cc4[nH]c3=O)n2)cnc1O[C@H]1C[C@@H](N(C)C)C1 [Compound 244, 7-fluoro-3-(2-{5-methoxy-6-[(1s,3s)-3-(dimethylamino)cyclobutoxy]-3-pyridylamino}-4-pyrimidinylamino)-1,2-dihydro-2-quinolinone] gave an IC50 of at most 500 nM. In the case of CN(C)CC1COc2cc(Nc3nccc(Nc4cc5cc(Cl)ccc5[nH]c4=O)n3)ccc2O1 (stereo not shown) [Compound 245, 6-chloro-3-(2-{2-[(dimethylamino)methyl]-2,3-dihydro-1,4-benzodioxin-6-ylamino}-4-pyrimidinylamino)-1,2-dihydro-2-quinolinone], the IC50 is reported as at most 500 nM. For COc1cc(Nc2nccc(Nc3cc4cccc(F)c4[nH]c3=O)n2)cnc1O[C@H]1C[C@@H](N(C)C)C1 [Compound 246, 8-fluoro-3-(2-{5-methoxy-6-[(1s,3s)-3-(dimethylamino)cyclobutoxy]-3-pyridylamino}-4-pyrimidinylamino)-1,2-dihydro-2-quinolinone], the IC50 was at most 500 nM. With CN(C)[C@H]1C[C@H](Oc2ccc(Nc3nccc(Nc4cc5ccccc5[nH]c4=O)n3)cc2)C1 [Compound 248, 3-(2-{p-[(1r,3r)-3-(dimethylamino)cyclobutoxy]phenylamino}-4-pyrimidinyl-amino)-2(1H)-quinolinone] the IC50 was at most 500 nM.
